Data as given in PubChem BioAssay AID248 (DTP/NCI, 2004).
Several values for one entry are separate records, joined by “and”; a condition that tells them apart may be missing. Identical values can stand only once. Toxic doses and inconclusive results are not listed. No stated cut-off is given here; in the data, active means T/C of 150% or more; inactive means T/C below 125%.

System: L1210 leukemia ip in BDF1 mice, survival T/C
Assay: NCI In Vivo Anticancer Drug Screen. Data for tumor model L1210 Leukemia (intraperitoneal) in B6D2F1 (BDF1) mice
Details: endpoint: mean survival time, higher = longer survival
Method in brief: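 Value reflects the ratio of survival in compound-treated mice to survival in vehicle-treated controls, with both groups carrying the same transplanted tumor.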

[1] = dose: 100.0 mg/kg/injection, schedule: Q04DX003 (ip), vehicle: Klucel (hydroxypropylcellulose) (HPC)
[2] = dose: 100.0 mg/kg/injection, schedule: Q01DX009 (ip), vehicle: saline
[3] = dose: 100.0 mg/kg/injection, schedule: Q04DX003 (ip), vehicle: saline
[4] = dose: 200.0 mg/kg/injection, schedule: Q01DX009 (ip), vehicle: saline
[5] = dose: 200.0 mg/kg/injection, schedule: Q04DX003 (ip), vehicle: saline
[6] = dose: 400.0 mg/kg/injection, schedule: Q01DX009 (ip), vehicle: saline
[7] = dose: 400.0 mg/kg/injection, schedule: Q04DX003 (ip), vehicle: saline
[8] = dose: 100.0 mg/kg/injection, schedule: Q01DX001 (ip), vehicle: saline
[9] = dose: 200.0 mg/kg/injection, schedule: Q01DX001 (ip), vehicle: saline
[10] = dose: 400.0 mg/kg/injection, schedule: Q01DX001 (ip), vehicle: saline
[11] = dose: 100.0 mg/kg/injection, schedule: Q01DX001 (ip), vehicle: saline with Tween-80
[12] = dose: 100.0 mg/kg/injection, schedule: Q01DX009 (ip), vehicle: Klucel (hydroxypropylcellulose) (HPC)
[13] = dose: 200.0 mg/kg/injection, schedule: Q01DX009 (ip), vehicle: Klucel (hydroxypropylcellulose) (HPC)
[14] = dose: 400.0 mg/kg/injection, schedule: Q01DX009 (ip), vehicle: Klucel (hydroxypropylcellulose) (HPC)

Measured: T/C

O=[N+]([O-])c1ccc2nccc(Cl)c2c1
inactive: dose: 25.0 mg/kg/injection, schedule: Q01DX009 (ip), vehicle: Klucel (hydroxypropylcellulose) (HPC) 97 % of control | dose: 50.0 mg/kg/injection, schedule: Q01DX009 (ip), vehicle: Klucel (hydroxypropylcellulose) (HPC) 92 % of control | [1] 95 % of control

CCC(Cc1ccccc1Br)C1=NC(C)(C)CO1 (stereo not drawn)
inactive: [2] 90 % of control | [3] 105 % of control | [4] 90 % of control | [5] 107 % of control | [6] 106 % of control | [7] 100 % of control

CC12CCC(C(Br)C1=O)C2(C)CS(=O)(=O)O (stereo not drawn)
inactive: [8] 104 % of control and 101 % of control | [2] 89 % of control | [3] 95 % of control | [9] 93 % of control and 104 % of control | [4] 97 % of control | [5] 97 % of control | [10] 104 % of control | [6] 92 % of control | [7] 95 % of control

COc1cccc(NC(=S)NC(=O)c2ccccc2)c1
inactive: dose: 100.0 mg/kg/injection, schedule: Q04DX002 (ip), vehicle: Klucel (hydroxypropylcellulose) (HPC) 110 % of control | dose: 200.0 mg/kg/injection, schedule: Q04DX002 (ip), vehicle: Klucel (hydroxypropylcellulose) (HPC) 92 % of control | dose: 400.0 mg/kg/injection, schedule: Q04DX002 (ip), vehicle: Klucel (hydroxypropylcellulose) (HPC) 103 % of control

O=c1cc(CCc2ccccc2)cc[nH]1
inactive: [8] 97 % of control | [9] 103 % of control | [10] 111 % of control

CC(C)(C)C=O
inactive: [3] 102 % of control | [5] 96 % of control | [7] 100 % of control

CC(C)(C)C1CCC2SC(C)(C(C)(C)C)CC(C(C)(C)C)C2C1 (stereo not drawn)
inactive: [11] 104 % of control | dose: 200.0 mg/kg/injection, schedule: Q01DX001 (ip), vehicle: saline with Tween-80 98 % of control | dose: 400.0 mg/kg/injection, schedule: Q01DX001 (ip), vehicle: saline with Tween-80 91 % of control

O=[N+]([O-])c1ccc(N/N=C/c2ccccn2)cc1
inactive: [12] 87 % of control | [13] 95 % of control | [14] 97 % of control

CN1CCC(CN2c3ccccc3Sc3ccccc32)CC1
inactive: dose: 6.25 mg/kg/injection, schedule: Q01DX009 (ip), vehicle: saline with Tween-80 93 % of control | dose: 12.5 mg/kg/injection, schedule: Q01DX009 (ip), vehicle: saline with Tween-80 93 % of control | dose: 15.0 mg/kg/injection, schedule: Q01DX Z (ip), vehicle: methylcellulose (MC) 104 % of control | dose: 25.0 mg/kg/injection, schedule: Q01DX009 (ip), vehicle: saline with Tween-80 93 % of control | dose: 25.0 mg/kg/injection, schedule: Q04DX003 (ip), vehicle: saline 108 % of control | dose: 30.0 mg/kg/injection, schedule: Q01DX Z (ip), vehicle: methylcellulose (MC) 108 % of control | dose: 45.0 mg/kg/injection, schedule: Q01DX Z (ip), vehicle: methylcellulose (MC) 96 % of control | dose: 50.0 mg/kg/injection, schedule: Q04DX003 (ip), vehicle: saline 100 % of control and 109 % of control | [8] 103 % of control | [3] 97 % of control | [9] 102 % of control | [5] 106 % of control and 108 % of control | [7] 97 % of control

CC(=O)Nc1cc2ccccc2[n+](C)c1
inactive: dose: 12.5 mg/kg/injection, schedule: Q04DX003 (ip), vehicle: Klucel (hydroxypropylcellulose) (HPC) 94 % of control | dose: 25.0 mg/kg/injection, schedule: Q04DX003 (ip), vehicle: Klucel (hydroxypropylcellulose) (HPC) 98 % of control | dose: 50.0 mg/kg/injection, schedule: Q04DX003 (ip), vehicle: Klucel (hydroxypropylcellulose) (HPC) 96 % of control

CCN(CC)CCC(=O)c1ccc2oc3ccccc3c2c1
inactive: dose: 12.0 mg/kg/injection, schedule: Q01DX001 (ip), vehicle: saline 100 % of control | dose: 25.0 mg/kg/injection, schedule: Q01DX001 (ip), vehicle: saline 90 % of control | dose: 50.0 mg/kg/injection, schedule: Q01DX001 (ip), vehicle: saline 103 % of control | [8] 113 % of control

O=C(COc1cccc(Cl)c1)Nc1ccc(Cl)cc1
inactive: dose: 100.0 mg/kg/injection, schedule: Q01DX009 (ip), vehicle: gum acacia 86 % of control | dose: 200.0 mg/kg/injection, schedule: Q01DX009 (ip), vehicle: gum acacia 86 % of control | dose: 400.0 mg/kg/injection, schedule: Q01DX009 (ip), vehicle: gum acacia 87 % of control

CCc1cccc(CC)c1NC(=O)NS(=O)(=O)c1ccccc1
inactive: dose: 100.0 mg/kg/injection, schedule: Q01DX009 (ip), vehicle: saline with Tween-80 91 % of control | dose: 200.0 mg/kg/injection, schedule: Q01DX009 (ip), vehicle: saline with Tween-80 88 % of control

O=c1[nH]c(NCCCCc2ccccc2)c(Br)c(=O)[nH]1
inactive: dose: 25.0 mg/kg/injection, schedule: Q01DX001 (ip), vehicle: saline with Tween-80 98 % of control | dose: 50.0 mg/kg/injection, schedule: Q01DX001 (ip), vehicle: saline with Tween-80 97 % of control | [11] 98 % of control

CN(C)C=Nc1ccccc1
inactive: [12] 109 % of control | [1] 111 % of control | [13] 101 % of control | dose: 200.0 mg/kg/injection, schedule: Q04DX003 (ip), vehicle: Klucel (hydroxypropylcellulose) (HPC) 97 % of control | [14] 100 % of control | dose: 400.0 mg/kg/injection, schedule: Q04DX003 (ip), vehicle: Klucel (hydroxypropylcellulose) (HPC) 93 % of control

COC(=O)CC1C(C)(C)C(=O)C2CC3=C4CC(=O)OC(c5ccoc5)C4(C)CCC3C1(C)C2=O (stereo not drawn)
inactive: dose: 100.0 mg/kg/injection, schedule: Q01DX001 (ip), vehicle: carboxymethylcellulose (CMC) 97 % of control | dose: 200.0 mg/kg/injection, schedule: Q01DX001 (ip), vehicle: carboxymethylcellulose (CMC) 92 % of control | dose: 400.0 mg/kg/injection, schedule: Q01DX001 (ip), vehicle: carboxymethylcellulose (CMC) 90 % of control

C[N+](C)(CC(=O)Nc1cc(C(F)(F)F)cc(C(F)(F)F)c1)CC(=O)Nc1ccc(Cl)c(C(F)(F)F)c1
inactive: dose: 6.25 mg/kg/injection, schedule: Q04DX002 (ip), vehicle: saline with Tween-80 93 % of control | dose: 12.5 mg/kg/injection, schedule: Q04DX002 (ip), vehicle: saline with Tween-80 93 % of control | dose: 25.0 mg/kg/injection, schedule: Q04DX002 (ip), vehicle: saline with Tween-80 100 % of control and 91 % of control
